Laboratory results published in ChEMBL document CHEMBL5576112, “Synthesis, in silico, in vitro evaluation of furanyl- and thiophenyl-3-phenyl-1H-indole-2-carbohydrazide derivatives as tubulin inhibitors and anticancer agents” (RSC Med Chem, 2024).
Activity calls are given as the source filed them. The calls are words filed in the database; no cut-off is given here.

How the values were obtained:
OVCAR-8 [1] = assay: Growth inhibition of human OVCAR-8 cells at 10 uM measured after 48 hrs by sulforhodamine B assay; assay type: functional, cell-based
MDA-MB-435 [2] = assay: Growth inhibition of human MDA-MB-435 cells measured after 48 hrs by sulforhodamine B assay; assay type: functional; conditions: for CC50: read-out: LC50 (the source's name)
MDA-MB-435 [3] = assay: Growth inhibition of human MDA-MB-435 cells at 10 uM measured after 48 hrs by sulforhodamine B assay; assay type: functional, cell-based
NCI-H522 [4] = assay: Growth inhibition of human NCI-H522 cells measured after 48 hrs by sulforhodamine B assay; assay type: functional; conditions: for CC50: read-out: LC50 (the source's name)
OVCAR-8 [5] = assay: Growth inhibition of human OVCAR-8 cells measured after 48 hrs by sulforhodamine B assay; assay type: functional; conditions: for CC50: read-out: LC50 (the source's name)
COLO 205 [6] = assay: Growth inhibition of human COLO 205 cells measured after 48 hrs by sulforhodamine B assay; assay type: functional; conditions: for CC50: read-out: LC50 (the source's name)
SK-MEL-5 [7] = assay: Growth inhibition of human SK-MEL-5 cells at 10 uM measured after 48 hrs by sulforhodamine B assay; assay type: functional, cell-based
K562 [8] = assay: Growth inhibition of human K562 cells measured after 48 hrs by sulforhodamine B assay; assay type: functional; conditions: for CC50: read-out: LC50 (the source's name)
UACC-62 [9] = assay: Growth inhibition of human UACC-62 cells at 10 uM measured after 48 hrs by sulforhodamine B assay; assay type: functional, cell-based
NCI-H522 [10] = assay: Growth inhibition of human NCI-H522 cells at 10 uM measured after 48 hrs by sulforhodamine B assay; assay type: functional, cell-based
Sus scrofa [11] = organism: Sus scrofa; assay: Inhibition of porcine brain tubulin polymerization assessed as microtubule destabilization by measuring relative fluorescence unit at 10 uM measured at 60 secs interval for 60 mins in presence of GTP by fluorescence assay
SK-MEL-5 [12] = assay: Growth inhibition of human SK-MEL-5 cells measured after 48 hrs by sulforhodamine B assay; assay type: functional; conditions: for CC50: read-out: LC50 (the source's name)
MCF7 [13] = assay: Growth inhibition of human MCF7 cells at 10 uM measured after 48 hrs by sulforhodamine B assay; assay type: functional, cell-based
UACC-62 [14] = assay: Growth inhibition of human UACC-62 cells measured after 48 hrs by sulforhodamine B assay; assay type: functional; conditions: for CC50: read-out: LC50 (the source's name)
MCF7 [15] = assay: Growth inhibition of human MCF7 cells measured after 48 hrs by sulforhodamine B assay; assay type: functional
K562 [16] = assay: Growth inhibition of human K562 cells at 10 uM measured after 48 hrs by sulforhodamine B assay; assay type: functional, cell-based
COLO 205 [17] = assay: Growth inhibition of human COLO 205 cells at 10 uM measured after 48 hrs by sulforhodamine B assay; assay type: functional, cell-based
Sus scrofa [18] = organism: Sus scrofa; assay: Inhibition of porcine brain tubulin polymerization assessed as microtubule destabilization at 10 uM measured at 60 secs interval for 60 mins in presence of GTP by fluorescence assay

| Compound | growth inhibition (GI) (OVCAR-8 [1]) | GI50 (MDA-MB-435 [2]) [nM] | CC50 (MDA-MB-435 [2]) [nM] | growth inhibition (GI) (MDA-MB-435 [3]) | GI50 (NCI-H522 [4]) [nM] | CC50 (NCI-H522 [4]) [nM] | GI50 (OVCAR-8 [5]) [nM] | CC50 (OVCAR-8 [5]) [nM] | GI50 (COLO 205 [6]) [nM] | CC50 (COLO 205 [6]) [nM] | growth inhibition (GI) (SK-MEL-5 [7]) | GI50 (K562 [8]) [nM] | CC50 (K562 [8]) [nM] | growth inhibition (GI) (UACC-62 [9]) | growth inhibition (GI) (NCI-H522 [10]) | GI50 (SK-MEL-5 [12]) [nM] | CC50 (SK-MEL-5 [12]) [nM] | growth inhibition (GI) (MCF7 [13]) | GI50 (UACC-62 [14]) [nM] | growth inhibition (GI) (COLO 205 [17]) | other results |
| --- | --- | --- | --- | --- | --- | --- | --- | --- | --- | --- | --- | --- | --- | --- | --- | --- | --- | --- | --- | --- | --- |
| O=C(N/N=C/c1ccc([N+](=O)[O-])o1)c1[nH]c2ccc(Br)cc2c1-c1ccccc1 | Active | 80.8 | 734 | Active | 37.4 | 5390 | 184 | 4190 | 233 | 1790 | Active | 54 | > 100000 | Active | Active | 213 | 2620 | Active | 73.1 | Active | RFU (Sus scrofa [11]): 45 a.u.; CC50 (UACC-62 [14]): 5290 nM; GI50 (MCF7 [15]): 44.3 nM; LC50 (MCF7 [15]): > 100000 nM; growth inhibition (GI) (K562 [16]): Active |
| O=C(O)c1ccc(-c2ccc(/C=N/NC(=O)c3[nH]c4ccc(Br)cc4c3-c3ccccc3)s2)cc1 | – | – | – | Active | – | – | – | – | – | – | Active | – | – | – | Active | – | – | – | – | Active | growth inhibition (GI) (MDA-MB-435 [2]): Active; growth inhibition (GI) (NCI-H522 [4]): Active; growth inhibition (GI) (COLO 205 [6]): Active; growth inhibition (GI) (SK-MEL-5 [12]): Active |
| N#Cc1ccc(/C=N/NC(=O)c2[nH]c3ccc(Br)cc3c2-c2ccccc2)o1 | Active | 186 | > 100000 | Active | 82.6 | > 100000 | 209 | > 100000 | 198 | 692 | Active | 69 | > 100000 | Active | Active | 231 | > 100000 | Active | 462 | Active | inhibition (Sus scrofa [18]): inactive; CC50 (UACC-62 [14]): > 100000 nM; GI50 (MCF7 [15]): 324 nM; LC50 (MCF7 [15]): > 100000 nM; growth inhibition (GI) (K562 [16]): Active |
| COc1ccc(/C=N/NC(=O)c2[nH]c3ccc(Br)cc3c2-c2ccccc2)o1 | Active | 77.5 | 747 | Active | 18.4 | > 100000 | 84.5 | > 100000 | 187 | 659 | Active | 47 | > 100000 | Active | Active | 139 | > 100000 | Active | 53.5 | Active | CC50 (UACC-62 [14]): > 100000 nM; GI50 (MCF7 [15]): 34.9 nM; LC50 (MCF7 [15]): > 100000 nM; growth inhibition (GI) (K562 [16]): Active |
| N#Cc1ccc(/C=N/NC(=O)c2[nH]c3ccc(Br)cc3c2-c2ccccc2)s1 | – | 36 | > 100000 | Active | 23 | > 100000 | – | – | 195 | > 100000 | Active | – | – | – | Active | 124 | 4610 | – | – | Active | inhibition (Sus scrofa [18]): inactive |
| O=C(N/N=C/c1ccc([N+](=O)[O-])s1)c1[nH]c2ccc(Br)cc2c1-c1ccccc1 | – | 181 | 861 | Active | 47.3 | > 100000 | – | – | 203 | 795 | Active | – | – | – | Active | 214 | 1870 | – | – | Active | inhibition (Sus scrofa [18]): inactive |
| O=C(N/N=C/c1ccc(-c2cccc([N+](=O)[O-])c2)o1)c1[nH]c2ccc(Br)cc2c1-c1ccccc1 | – | – | – | – | – | 9130 | – | – | – | – | – | – | – | – | Active | – | – | – | – | – | – |
